The text below walks through data of ChEMBL document CHEMBL1909046, “DrugMatrix in vitro pharmacology data”.

A short description of data set [1]: DRUGMATRIX: ATPase, Na+/K+ enzyme inhibition (substrate: ATP). It counts as tissue-based, Sus scrofa, Heart. The following applies: Not Active = under 50% inhibition at 10 µM.
Data set [2] deals with Prostaglandin G/H synthase 1 (Homo sapiens, UniProt P23219). Briefly: biochemical. Conditions: platelet. Type of data set: tissue-based, Platelet.
The target in data set [3] is T1, Nitric oxide synthase, inducible (Mus musculus, UniProt P29477).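 Also: inhibition of iNOS enzyme activity measured with L-arginine as substrate; in other assays of this panel Not Active means under 50% inhibition at 10 µM.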
T1 sequence (P29477 whole entry): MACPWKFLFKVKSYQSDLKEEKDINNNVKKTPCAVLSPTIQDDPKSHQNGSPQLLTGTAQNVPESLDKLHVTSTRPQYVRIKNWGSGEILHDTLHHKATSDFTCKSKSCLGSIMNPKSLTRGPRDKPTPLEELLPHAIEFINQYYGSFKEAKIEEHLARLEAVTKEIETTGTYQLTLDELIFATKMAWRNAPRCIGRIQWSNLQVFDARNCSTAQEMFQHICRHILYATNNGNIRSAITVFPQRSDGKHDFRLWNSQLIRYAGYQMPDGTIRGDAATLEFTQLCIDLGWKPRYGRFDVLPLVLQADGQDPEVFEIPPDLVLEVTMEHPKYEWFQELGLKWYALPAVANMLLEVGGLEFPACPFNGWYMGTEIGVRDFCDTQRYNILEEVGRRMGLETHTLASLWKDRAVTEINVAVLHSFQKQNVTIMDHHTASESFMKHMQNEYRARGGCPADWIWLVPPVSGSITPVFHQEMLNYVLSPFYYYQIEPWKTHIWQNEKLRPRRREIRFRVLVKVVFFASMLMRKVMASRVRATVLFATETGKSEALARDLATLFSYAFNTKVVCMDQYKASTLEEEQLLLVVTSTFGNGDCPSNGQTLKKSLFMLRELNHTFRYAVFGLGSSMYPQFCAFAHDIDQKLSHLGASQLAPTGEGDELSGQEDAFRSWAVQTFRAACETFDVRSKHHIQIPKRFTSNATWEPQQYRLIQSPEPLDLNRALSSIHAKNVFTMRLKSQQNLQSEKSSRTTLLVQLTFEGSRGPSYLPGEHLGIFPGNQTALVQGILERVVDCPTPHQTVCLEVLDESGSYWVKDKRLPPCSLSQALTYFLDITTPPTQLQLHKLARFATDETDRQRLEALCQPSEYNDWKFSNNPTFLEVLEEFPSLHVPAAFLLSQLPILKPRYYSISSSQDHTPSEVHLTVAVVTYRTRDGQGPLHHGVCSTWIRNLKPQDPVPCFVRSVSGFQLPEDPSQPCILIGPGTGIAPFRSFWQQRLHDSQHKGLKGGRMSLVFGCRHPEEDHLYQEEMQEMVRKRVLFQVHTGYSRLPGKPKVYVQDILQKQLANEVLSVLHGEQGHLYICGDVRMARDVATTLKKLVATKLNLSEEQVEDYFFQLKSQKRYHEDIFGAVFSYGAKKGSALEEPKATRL
Details: species or system Escherichia coli.

Data set [4] is described as follows: DRUGMATRIX: Phosphodiesterase PDE4 enzyme inhibition (substrate: [3H]cAMP + cAMP). The following applies: u-937; Not Active = under 50% inhibition at 10 µM.
The target in data set [5] is T2, Neutrophil elastase (Homo sapiens, UniProt P08246).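 Also: inhibition of neutrophil elastase enzyme activity, measured with a p-nitroanilide-linked peptide substrate; in other assays of this panel Not Active means under 50% inhibition at 10 µM.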
T2 sequence (P08246 whole entry): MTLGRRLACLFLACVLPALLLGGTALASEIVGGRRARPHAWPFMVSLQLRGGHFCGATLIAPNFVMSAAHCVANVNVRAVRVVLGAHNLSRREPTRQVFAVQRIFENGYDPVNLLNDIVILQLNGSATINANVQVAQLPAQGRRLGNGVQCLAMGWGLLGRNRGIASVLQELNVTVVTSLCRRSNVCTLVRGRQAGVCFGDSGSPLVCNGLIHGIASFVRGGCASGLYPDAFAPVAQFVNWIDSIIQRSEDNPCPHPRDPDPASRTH
Type of data set: tissue-based.

For data set [6], the target named is T3, Adenosine receptor A3 (Homo sapiens, UniProt P0DMS8).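 Also: radioligand binding assay with AB-MECA serving as the labeled ligand; in other assays of this panel Not Active means under 50% inhibition at 10 µM.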
T3 sequence (P0DMS8 whole entry): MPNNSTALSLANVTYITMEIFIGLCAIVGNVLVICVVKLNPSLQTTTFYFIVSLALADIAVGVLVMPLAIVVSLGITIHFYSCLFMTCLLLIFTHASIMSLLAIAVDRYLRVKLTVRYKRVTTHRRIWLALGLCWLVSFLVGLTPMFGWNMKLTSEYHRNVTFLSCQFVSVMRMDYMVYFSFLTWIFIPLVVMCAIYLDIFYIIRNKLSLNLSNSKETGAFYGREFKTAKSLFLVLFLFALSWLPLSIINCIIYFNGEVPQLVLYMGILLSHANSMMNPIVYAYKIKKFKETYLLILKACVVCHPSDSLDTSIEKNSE
It counts as cell membranes, CHO-K1, Membrane.

Data set [7] deals with Cytochrome P450 2D6 (Homo sapiens, UniProt P10635). The following applies: bti-tn-5b1-4.
Cytochrome P450 2D6, sequence (P10635 whole entry): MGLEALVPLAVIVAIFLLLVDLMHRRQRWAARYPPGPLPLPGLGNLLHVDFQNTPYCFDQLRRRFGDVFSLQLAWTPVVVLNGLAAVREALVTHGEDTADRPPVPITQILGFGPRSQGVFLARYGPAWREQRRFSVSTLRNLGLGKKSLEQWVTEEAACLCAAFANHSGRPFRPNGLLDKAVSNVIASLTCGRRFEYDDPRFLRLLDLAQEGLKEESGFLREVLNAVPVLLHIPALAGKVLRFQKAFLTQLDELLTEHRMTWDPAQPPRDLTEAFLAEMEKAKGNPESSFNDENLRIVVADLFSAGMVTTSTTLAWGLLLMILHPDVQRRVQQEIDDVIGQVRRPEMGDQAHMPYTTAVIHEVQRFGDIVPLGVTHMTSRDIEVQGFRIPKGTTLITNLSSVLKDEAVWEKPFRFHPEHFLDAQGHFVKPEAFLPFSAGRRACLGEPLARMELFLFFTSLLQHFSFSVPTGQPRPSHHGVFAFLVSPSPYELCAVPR

*1 amine or outer side, *2 acyl side, *3 side chain or, on linkers, in order; H or OH if unused. Where a SMILES comes first, the peptide text is derived from it. Bridges are numbered along the chain shown (N, C = ends). Roman numbers before positions name the chains, in order. [ ]: non-standard residue; d: D form. Actinocin(1to9) = Cc1c2oc3c(C)ccc(C(=O)[*:2])c3nc-2c(C(=O)[*:1])c(N)c1=O; NMeV = CN[C@H](C(=O)O)C(C)C; Sar = CNCC(=O)O

Prostaglandin G/H synthase 1, sequence (P23219 whole entry): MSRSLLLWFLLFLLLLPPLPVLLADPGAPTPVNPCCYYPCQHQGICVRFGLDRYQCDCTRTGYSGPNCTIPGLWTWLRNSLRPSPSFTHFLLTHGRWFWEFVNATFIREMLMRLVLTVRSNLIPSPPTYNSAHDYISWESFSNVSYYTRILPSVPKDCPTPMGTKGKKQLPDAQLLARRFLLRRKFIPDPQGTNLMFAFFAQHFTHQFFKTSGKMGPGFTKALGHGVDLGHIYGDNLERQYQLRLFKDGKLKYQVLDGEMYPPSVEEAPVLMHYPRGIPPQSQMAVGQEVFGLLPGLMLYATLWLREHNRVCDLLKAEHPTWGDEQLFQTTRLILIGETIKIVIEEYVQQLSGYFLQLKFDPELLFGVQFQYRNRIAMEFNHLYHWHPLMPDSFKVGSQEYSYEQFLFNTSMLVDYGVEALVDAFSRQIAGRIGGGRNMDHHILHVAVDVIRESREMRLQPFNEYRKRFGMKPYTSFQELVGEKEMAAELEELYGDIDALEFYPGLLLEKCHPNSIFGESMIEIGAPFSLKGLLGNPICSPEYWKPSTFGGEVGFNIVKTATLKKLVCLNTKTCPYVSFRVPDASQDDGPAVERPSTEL

For the molecule LIPOPOLYSACCHARIDE E. COLI O55:B5, the IC50 result in data set [1], in data set [2], in data set [3], in data set [4], in data set [5] and in data set [6] (cho-k1) was “Not Active” throughout. In data set [7], the IC50 (in general, the concentration that gives 50% inhibition) is on record as “Not Active”. Moreover, the Ki entry in data set [1], in data set [2], in data set [3], in data set [4], in data set [5] and in data set [6] (cho-k1) was “Not Active” each time. Also, the Ki – broadly, the dissociation constant of the complex between target and ligand, obtained from inhibition or displacement – in data set [7] is listed as “Not Active”.
For `NCCCCCC(=O)O` [AMINOCAPROIC ACID], the IC50 entry in data set [1], in data set [2], in data set [3], in data set [4], in data set [5] and in data set [6] (cho-k1) was “Not Active” in each case. Besides, the IC50 entry in data set [7] is reported as “Not Active”. The inhibition constant (Ki) result in data set [1], in data set [4] and in data set [7] was “Not Active” each time.
Consider `CCC(C)n1ncn(-c2ccc(N3CCN(c4ccc(OCC5COC(Cn6cncn6)(c6ccc(Cl)cc6Cl)O5)cc4)CC3)cc2)c1=O` (stereo not given) [ITRACONAZOLE], for which the IC50 entry in data set [1], in data set [2], in data set [3], in data set [4], in data set [5] and in data set [6] (cho-k1) was “Not Active” throughout. In data set [7], the IC50 entry is “Not Active”. The Ki result in data set [1], in data set [4] and in data set [7] was “Not Active” each time.
Take `Cc1c(C)c2c(c(C)c1O)CC[C@@](C)(CCC[C@H](C)CCC[C@H](C)CCCC(C)C)O2` [ALPHA-TOCOPHEROL]: the IC50 result in data set [1], in data set [2], in data set [3], in data set [4], in data set [5] and in data set [6] (cho-k1) was “Not Active” each time. For the same molecule, the IC50 result in data set [7] is reported as “Not Active”. Also, the Ki result in data set [1], in data set [4] and in data set [7] was “Not Active” each time.
Turning to `Cc1cc(C(C#N)c2ccc(Cl)cc2)c(Cl)cc1NC(=O)c1cc(I)cc(I)c1O` (stereo not given) [CLOSANTEL], the half-inhibitory concentration (IC50) is 4.88 µM in data set [1] (read-out: IC50); “Not Active” in data set [2]; “Not Active” in data set [3]; “Not Active” in data set [4]; “Not Active” in data set [5]; 0.096 µM in data set [6] (read-out: IC50). Also, the IC50 entry in data set [7] is recorded as “Not Active”. The Ki entry in data set [4] is “Not Active”; in data set [6] (read-out: Ki), 0.054 µM; in data set [7], “Not Active”.
With `CNNCc1ccc(C(=O)NC(C)C)cc1` [PROCARBAZINE], the IC50 entry in data set [1], in data set [2], in data set [3], in data set [4], in data set [5] and in data set [6] (cho-k1) was “Not Active” each time. For the same molecule, the IC50 result in data set [7] is recorded as “Not Active”. Also, the Ki entry in data set [1], in data set [4] and in data set [7] was “Not Active” throughout.
Regarding `Cc1ccc(/N=C/N(C)/C=N/c2ccc(C)cc2C)c(C)c1` [AMITRAZ], the IC50 result in data set [1], in data set [2], in data set [3], in data set [4], in data set [5] and in data set [6] (cho-k1) was “Not Active” in each case. Besides, in data set [7], the IC50 result was “Not Active”. The Ki entry in data set [1], in data set [4] and in data set [7] was “Not Active” in each case.
Regarding `Cc1ccc2cc3c(ccc4ccccc43)c3c2c1CC3` [3-METHYLCHOLANTHRENE], the IC50 result was “Not Active” in data set [1]; “Not Active” in data set [2]; “Not Active” in data set [3]; “Not Active” in data set [4]; “Not Active” in data set [5]; 5.54 µM in data set [6] (read-out: IC50). Also, the concentration for half-maximal inhibition (IC50) result in data set [7] is listed as “Not Active”. Also, the Ki entry is “Not Active” in data set [1], “Not Active” in data set [4], 3.13 µM in data set [6] (read-out: Ki) and “Not Active” in data set [7].
With `CNCCc1ccccn1` [BETAHISTINE], the concentration for half-maximal inhibition (IC50) result in data set [1], in data set [2], in data set [3], in data set [4], in data set [5] and in data set [6] (cho-k1) was “Not Active” in each case. Also, the half-maximal inhibitory concentration (IC50) result in data set [7] is “Not Active”. Besides, the Ki result in data set [1], in data set [4] and in data set [7] was “Not Active” throughout.
On to `OC(Cn1cncn1)(Cn1cncn1)c1ccc(F)cc1F` [FLUCONAZOLE], for which the IC50 result in data set [1], in data set [2], in data set [3], in data set [4], in data set [5] and in data set [6] (cho-k1) was “Not Active” throughout. The IC50 entry in data set [7] is recorded as “Not Active”. Also, the Ki entry in data set [1], in data set [4] and in data set [7] was “Not Active” in each case.
`Cc1c2oc3c(C)ccc(C(=O)N[C@@H]4C(=O)N[C@H](C(C)C)C(=O)N5CCC[C@H]5C(=O)N(C)CC(=O)N(C)[C@@H](C(C)C)C(=O)O[C@@H]4C)c3nc-2c(C(=O)N[C@@H]2C(=O)N[C@H](C(C)C)C(=O)N3CCC[C@H]3C(=O)N(C)CC(=O)N(C)[C@@H](C(C)C)C(=O)O[C@@H]2C)c(N)c1=O` [DACTINOMYCIN] (I: T[dV]P[Sar][NMeV] / II: T[dV]P[Sar][NMeV]; ester I:1-I:C, II:1-II:C; linker I:N-II:N via Actinocin(1to9)): the concentration for half-maximal inhibition (IC50) entry in data set [1], in data set [2], in data set [3], in data set [4], in data set [5] and in data set [6] (cho-k1) was “Not Active” throughout. Further, the IC50 result in data set [7] is reported as “Not Active”. Besides, the inhibition constant Ki entry in data set [1], in data set [4] and in data set [7] was “Not Active” in each case.
On to `Nc1nc(N)nc(-c2cc(Cl)ccc2Cl)n1.O=C(O)/C=C\C(=O)O` [IRSOGLADINE MALEATE], for which the IC50 result in data set [1], in data set [2], in data set [3], in data set [4], in data set [5] and in data set [6] (cho-k1) was “Not Active” each time. The IC50 result in data set [7] is “Not Active”. Further, the Ki entry in data set [1], in data set [4] and in data set [7] was “Not Active” each time.
For `Nc1ncn([C@@H]2O[C@H](CO)[C@@H](O)[C@H]2O)c(=O)n1` [AZACITIDINE], the IC50 entry in data set [1], in data set [2], in data set [3], in data set [4], in data set [5] and in data set [6] (cho-k1) was “Not Active” in each case. Also, the IC50 entry in data set [7] is recorded as “Not Active”. The inhibitory constant (Ki) entry in data set [1], in data set [4] and in data set [7] was “Not Active” each time.
Turning to `CC(NC(C)(C)C)C(=O)c1cccc(Cl)c1` (stereo not given) [BUPROPION], the IC50 entry in data set [1], in data set [2], in data set [3], in data set [4], in data set [5] and in data set [6] (cho-k1) was “Not Active” in each case. For the same molecule, in data set [7], the IC50 result is on record as “Not Active”. Further, the Ki result in data set [1], in data set [4] and in data set [7] was “Not Active” in each case.
